Counter-ions that a name gives are not always drawn. Like-named read-outs stand apart in the source and are kept apart here.
What was measured:
[1] = test system: Chondrozyten; assay: IL-1-induced chondrocytic chondrolysis in chondrocyte agarose culture, 35S-sulfate incorporation; conditions: agarose cell culture with 5 u/ml human rec. IL-1 alpha; factor relative to IL-1 treated control
[2] = test system: Rattenlebermikrosomen; assay: Inhibition of microsomal lipid peroxidation (malondialdehyde/thiobarbituric acid); assay type: biochemical, Ratte; conditions: rat liver microsomes, FeSO₄ start, 10 min 37°C; read-out: IC50 Mikrosomale Lipidperoxidation
Experimental: 4. Hemmung der Mikrosomalen Lipidperoxidation […]
Alle Schritte werden bei 0°C durchgeführt. Die Leber einer Ratte wird, um alles Hämoglobin zu entfernen, mit 0,9 % NaCl-Lösung gründlich gespült. Die grob zerkleinerte Leber wird dann in 10 mM Tris/HCl pH 7,4; 250 mM Saccharose (10 ml Puffer/g Leber) gepottert. Zunächst wird 5 Minuten bei 600xg zentrifugiert. Der Überstand wird dann 10 min bei 12000xg zentrifugiert und wird mit festem CaCl₂ (117,6 mg/100 ml) auf eine Konzentration von 8 mM eingestellt. Durch Zentrifugieren bei 25000 xg (15 min) wird ein Mikrosomenniederschlag gewonnen. Dieser Niederschlag wird im gleichen Volumen Puffer (10 mM Tris/HCl pH 7,4; 150 mM KCl) rehomogenisiert und erneut 15 min bei 25000 xg zentrifugiert.
Ein Testansatz besteht aus 20 µl Mikrosomen (100 mg/ml), vgl. oben, gelöst in Puffer (250 mM Tris/HCl pH 6,6, 750 mM KCl), 10 µl 50 mM MgCl₂, 10 µl 200 mM Isocitronensäure, 10 µl 4mM NADP (3,028 mg/ml Wasser), 10 µl 25 mM Niacinamid, 10 µl Isocitratdehydrogenase (1:100 verdünnt) und 20 µl Wasser oder Testsubstanz. Gestartet wird die Reaktion mit 10 µl 0,25 mM FeSO₄. Die Inkubation dauert 10 Minuten und erfolgt bei 37°C. Gestoppt wird mit 500 µl eiskalter 20 %iger Trichloressigsäure. Entstandenes Malondialdehyd wird durch Zugabe von 500 µl 0,67 %iger Thiobarbitursäure und 30 Minuten Inkubation bei 90°C in eine pinkfarbene Verbindung überführt, die bei 532 nm gemessen wird. Die Extinktion im Kontrollansatz ohne Prüfpräparat wird auf 0 % Hemmung gesetzt, während das völlige Verschwinden des Signals 100 % Hemmung bedeutet.

[3] = test system: IL-1beta; assay: LPS-stimulated interleukin release from human mononuclear cells, ELISA (IL-1beta); assay type: cell-based; conditions: 10 µmol/l, 20-22 h, read-out: % Hemmung der Interleukin-Freisetzung
Experimental: 5. Freisetzung von Interleukinen (insbesondere IL-1β) aus humanen mononuklearen Zellen
Die erfindungsgemäßen Verbindungen haben eine starke Hemmwirkung auf die Freisetzung von Interleukinen aus Humanzellen. Dies ist von großer pharmakologischer Bedeutung weil Interleukine die unerwünschte Degradation der Knorpelmatrix auslösen können.
10 ml Humanblut, stabilisiert mit 1 ml 3,8 %iger Natriumcitrat-Lösung, werden mit 10 ml PM16 (Serva, Heidelberg) verdünnt und mit 15 ml Lymphoprep (Dr. Molter GmbH, Heidelberg) unterschichtet. Die Proben werden 40 Minuten bei 400 xg (1600 rpm Minifuge 2, Heraeus, Osterode) zentrifugiert (Raumtemperatur). Die mononuklearen Zellen sind als weißer Ring an der Grenze Lymphoprep/Plasma sichtbar. Dieser Ring wird mit einer Spritze vorsichtig entnommen, mit dem gleichen Volumen PM16 verdünnt und 10 Minuten bei 400 xg zentrifugiert. Der Niederschlag wird mit ∼ 10 ml RPMI 1640 (+ 300 mg/l L-Glutamin, Gibco, Eggenstein) gewaschen. Nach Resuspendieren der Zellen in ∼ 1 ml RPMI 1640 (+ 300 mg/l L-Glutamin, + 25 mM HEPES, + 100 µg/ml Streptomycin, + 100 µg/ml Penicillin) wird die Zelldichte mit einem Coulter Counter JT (Coulter Diagnostics) bestimmt und auf 5 * 10⁶/ml eingestellt. Die Zellen bestehen typischerweise aus 90 % Lymphozyten und 10 % Monozyten.
230 µl mononukleare Zellen werden mit 10 µl Testsubstanz (10 µM in DMSO/Wasser 1/10) und 10 µl Lipopolysaccharide (500 µg gelöst in 1 ml Dimethylsulfoxid (DMSO) und vor Testbeginn 1/10 mit Wasser verdünnt, von Salmonella abortus equi, Sigma, Deisenhofen) 20-22 Stunden bei 37°C; 5 % CO₂ inkubiert. Die Proben werden in einem Eisbad auf 0°C abgekühlt und in einer Sigma-Zentrifuge zentrifugiert (2 Minuten; 2000 rpm). Aliquote des Überstandes werden mit einem kommerziell erhältlichen ELISA (Biermann, Bad Nauheim) bestimmt.

[4] = test system: Matrix Metalloproteasen (MMP); assay: Inhibition of matrix metalloproteases from supernatant of PMA-induced synoviocytes, fluorogenic substrate; assay type: biochemical, Kaninchen
Excerpt: 3. Inhibierung von Matrix Metalloproteasen (MMP)
Die erfindungsgemäßen Verbindungen zeigten deutliche inhibitorische Wirkungen auf proteolytische Enzyme, die sogenannten Matrix Metalloproteasen. Dies ist von großer Bedeutung, weil diese dem Fachmann an sich bekannten Enzyme am proteolytischen Abbau der intakten Knorpelmatrix entscheidend beteiligt sind.
Kaninchen Synoviocyten (HIG-82; ATCC, Rockville, Maryland, USA) werden in Nährmedium HAM'S F12 (Sigma, Deisenhofen, Deutschland, Katalog Nr. N-6760) mit 10 % fötalem Rinder Serum (Sigma, Deisenhofen, Deutschland, Katalog Nr. F-2442), zusammen mit Penicillin 100 U/ml sowie Streptomycin 100 µg/ml, kultiviert. Nach konfluentem Zellwachstum wird die MMP Expression in serumfreiem HAM'S F12 durch Zugabe von 0,3 µmol/l Phorbol-12-Myristat-13-Acetat induziert. Nach 20 h Inkubationszeit bei 37°C wird der Überstand abgenommen.
Der Überstand wird mit Trypsin (5 µg/ml) aktiviert. Nach 15 Minuten (min) bei 37°C wird die Aktivierung durch Zugabe von 1 mmol/l Phenylmethylsulfonylfluorid (PMSF) beendet und für weitere 10 min nachinkubiert. Das Gesamtvolumen des Ansatzes beträgt 210 µl.
Messung der MMP Aktivität (Lit.: C.G. Knight et al.; FEBS Lett. 296, 263 (1992)):
20 µl des obengenannten Überstandes werden 1:10 verdünnt, und mit 240 µl Puffer (0,1 Tris/HCl pH 7,5; 0,1 M NaCl; 0,01 M CaCl₂; 0,05 % Brij) gemischt. Die Prüfsubstanz wird in der angegebenen Konzentration (s. Tabelle) zugegeben. Nach einer Inkubationszeit von 15 min wird die Reaktion durch Zugabe von 20 µmol/l Fluoreszenz-Substanz ((7-Methoxycoumarin-4-yl)acetyl-pro-Leu-Gly-Leu-[3-(2',4'-dinitrophenyl)-L-2,3-diaminopropionyl]-Ala-Arg-NH₂; Bachem, Heidelberg, Deutschland, Kat. Nr.: M-1895) gestartet. Die Reaktion wird nach 30 min durch Zugabe von 10 mmol/l EDTA beendet. Das Gesamtvolumen des Ansatzes beträgt 320 µl. Als Meßparameter dienen die Fluoreszenzintensitäten bei λex: 328 nm und […]. Um die mögliche Eigenfluoreszens der Prüfsubstanzen zu berücksichtigen, werden die Fluoreszenzintensitäten von Parallel-Messungen ohne Substrat von den Messwerten mit Substrat abgezogen. Alle Operationen erfolgen bei 20°C. Im Kontrollexperiment ohne Hemmstoff wird die Fluoreszenz entsprechen 0 % Hemmung gesetzt, während völlige Auslöschung der Fluoreszenz 100 % Hemmung bedeutet.

[5] = test system: Chondrozyten; assay: Stimulation of cartilage matrix (proteoglycan) synthesis in chondrocyte agarose culture, 35S-sulfate incorporation; assay type: cell-based, Rinder; conditions: for fold induction at 10 µM: Chondrocyte, read-out: Stimulationsfaktor der Proteoglykansynthese
Excerpt: 1. Wirksamkeit in der Synthese-Stimulierung von Knorpel-Matrix, Prüfung in der Chondrozyten-Kultur
Zellen: Den Fußgelenken frisch geschlachteter Rinder werden der hyaline Knorpel entnommen, mit Pronase (Boehringer Mannheim) und Collagenase (Sigma), die native Matrix enzymatisch abgebaut, und die Chondrozyten in 1 %iger "low melting Agarose" in 24er Multiwell-Schalen in einer Zelldichte von 4 x 10⁶ pro well ausplattiert.
Medium: Komplettes Medium enthält HAM's F12 (Biochrom KG, Berlin) und 10 % foetales Kälberserum (Boehringer Mannheim), die Testsubstanz wird in Medium gelöst, üblicherweise in einer Konzentration von 10⁻⁵ M zugegeben und bei jedem Mediumwechsel erneut zugefügt.
Versuchsdurchführung: Die Behandlung erfolgt vom dritten bis zehnten Tag der Primärkultur, am 9. […] Die dissoziative Extraktion der Proteoglykane aus der Agarose-Schicht wird mit 8M Guanidinium-Hydrochlorid und beigefügten Proteinase-Inhibitoren (Sigma) unter Schütteln bei 4° C über 24 h durchgeführt. Der Überstand wird nach Zentrifugation über eine PD 10 ®Sephadex G 25 Säule in freies und inkorporiertes Sulfat getrennt, dessen Aktivität nach Aliquotierung im β-Szintillationscounter gemessen wird.
Auswertung: Der Parameter für die Matrixproduktion der Chondrozyten ist die Menge synthetisierter Proteoglykane, gemessen als Sulfatinkorporation in cpm. Aus vier Wells pro Gruppe wird der Mittelwert errechnet. Dieser wird durch den Mittelwert der unbehandelten Kontrolle dividiert, und ergibt somit einen Stimulationsfaktor, der bei Stimulation der Matrixsynthese größer 1 ist, bei Hemmung derselben durch Substanzwirkung kleiner 1, und bei unveränderter Matrixsynthese gleich 1 ist.
Als Standard wird Diacerein eingesetzt, das unter dem Markennamen "Artodar" von der Firma Proter bzw. […] Tabelle II

[6] = agarose cell culture, test substance usually 10⁻⁵ M, mean sulfate incorporation divided by untreated control (>1 = stimulation)

Compound	Stimulationsfaktor der Proteoglykansynthese [1]	IC50 [2] [nM]	inhibition at 10 µM [3] [%]	Hemmung der MMP ([4]; 30 µM) [%]	further results
CCOP(=O)(OCC)C(Nc1ccc(C=CC(=O)OC)cc1)c1cc(C(C)(C)C)c(O)c(C(C)(C)C)c1 (stereo not drawn) [Beispiel 67]	1,9	2220	26		
CCCCOP(=O)(OCCCC)C(NCc1ccc2c(c1)OCO2)c1cc(C(C)(C)C)c(O)c(C(C)(C)C)c1 (stereo not drawn) [Beispiel 31]	1,7	2180	32		
CC(C)(C)c1cc(C(Nc2ccc3c(c2)OCO3)[PH](=O)O)cc(C(C)(C)C)c1O (stereo not drawn) [Beispiel 3]	1,3	790		20	Hemmung der MMP ([4]; 10 µM): 3%; Hemmung der MMP ([4]; 100 µM): 83%
CCOP(=O)(OCC)C(c1cc(C(C)(C)C)c(O)c(C(C)(C)C)c1)N(C)c1ccccc1 (stereo not drawn) [Beispiel 53]	1,7	2030	53	11	Hemmung der MMP ([4]; 100 µM): 25%
CCOP(C)(=O)C(Nc1ccc2c(c1)OCO2)c1cc(C(C)(C)C)c(O)c(C(C)(C)C)c1 (stereo not drawn) [Beispiel 59]				43	Hemmung der MMP ([4]; 10 µM): 19%
CCCCOP(=O)(OCCCC)C(Nc1ccc2c(c1)OCO2)c1cc(C(C)(C)C)c(O)c(C(C)(C)C)c1 (stereo not drawn) [Beispiel 63]	1,5	240	31	60	Hemmung der MMP ([4]; 10 µM): 26%
CCOP(=O)(OCC)C(Nc1ccc(NC(c2cc(C(C)(C)C)c(O)c(C(C)(C)C)c2)P(=O)(OCC)OCC)cc1)c1cc(C(C)(C)C)c(O)c(C(C)(C)C)c1 (stereo not drawn) [Beispiel 74]	3,8	1250		47	Hemmung der MMP ([4]; 10 µM): 20%; Hemmung der MMP ([4]; 50 µM): 74%
1-(4-Chloranilino)-1-(3,5-di-tert.butyl-4-hydroxy-phenyl)-methanphosphonsäurediethylester [Beispiel 1]	1,5	2430			Stimulationsfaktor der Proteoglykansynthese ([5]; agarose cell culture, test substance usually 10⁻⁵ M, mean sulfate incorporation divided by untreated control (>1 = stimulation), 10 µM): 1,4
CCCCNC(c1cc(C(C)(C)C)c(O)c(C(C)(C)C)c1)P(=O)(OCC)OCC (stereo not drawn) [Beispiel 6]	1,4	2250			fold induction at 10 µM [5]: 1.2
CC(=O)Oc1cccc2c1C(=O)c1c(OC(C)=O)cc(C(=O)O)cc1C2=O [Diacerein, reference compound]	1,1				fold induction at 10 µM [5, 6]: 1
CCCOP(=O)(OCCC)C(NCc1ccc2c(c1)OCO2)c1cc(C(C)(C)C)c(O)c(C(C)(C)C)c1 (stereo not drawn) [Beispiel 2, 1-(3,4-Methylendioxybenzylamino)-1-(3,5-di-tert.butyl-4-hydroxy-phenyl)methanphosphonsäure-di-n-propylester-hydrochlorid]	4,3	2300			fold induction at 10 µM [5, 6]: 1.2
CCOP(=O)(OCC)C(Nc1ccc2c(c1)OCO2)c1cc(C(C)(C)C)c(O)c(C(C)(C)C)c1 (stereo not drawn) [Beispiel 61]	1,3		24		fold induction at 10 µM [5]: 2.9
CCOP(=O)(OCC)C(Nc1ccccn1)c1cc(C(C)(C)C)c(O)c(C(C)(C)C)c1 (stereo not drawn) [Beispiel 79]	1,2	2300			fold induction at 10 µM [5]: 1.6
CCCCOP(=O)(OCCCC)C(Nc1ccc(Cl)c(Cl)c1)c1cc(C(C)(C)C)c(O)c(C(C)(C)C)c1 (stereo not drawn) [Beispiel 49]	1,5	> 10000			fold induction at 10 µM [5, 6]: 1.2

Source: patent publication EP0703239A1, “Aminomethylphosphonic and aminomethylphosphinic acids derivatives and their use in the treatment of degenerative articular diseases” (priority 1994, dated 1996)
